Data: publication PMC11111895, “Identification of a dCache-type chemoreceptor in Campylobacter jejuni that specifically mediates chemotaxis towards methyl pyruvate” (Frontiers in Microbiology, 2024)
Where two headings read alike, the source gives them in different places.

Key:
[1] = system: Tlp11[1-342]-Tar[200-553] (Tlp342Tar200); test: Microfluidic chemotaxis of E. coli expressing hybrid chemoreceptor Tlp342Tar200; format: cell-based, E. coli VS188; details: for effect on chemotaxis towards methyl pyruvate of E. coli with Tlp342Tar200 / effect on responses to glucose of E. coli with Tlp342Tar200: cells incubated in 10 mM compound; for chemotactic response of E. coli expressing Tlp342Tar200 as the sole receptor: microfluidic device, 50 min
Procedure: The E. coli cells expressing hybrid chemoreceptor and GFP were grown in tryptone broth, up to an OD600 of 0.55, at 34°C, with shaking at 250 rpm. The cells were harvested by means of centrifugation at 5,000 rpm, washed twice with Tethering Buffer (10 mM KH2PO4, 10 mM K2HPO4, and 0.1 mM EDTA, pH 7.0), and resuspended in Tethering Buffer such that an OD600 of 5.5 was attained. The chemotactic responses of E. coli cells to the compounds were measured using a microfluidic device ([Si et al., 2012]). The collected E. coli cells were added to the sink pores of the device and allowed to freely diffuse into the observation channel for 40 min. Subsequently, the compound solution was added to the source pores, to establish a concentration gradient gradually in the observation channel of the device. Fluorescence intensity in the observation channel was detected using an LSM 800 laser scanning confocal microscope (Zeiss, Germany). Data were analyzed using ImageJ software.
To determine whether methyl pyruvate stimulates transmembrane signaling through Tlp11-LBD, we fused C. jejuni ATCC 33560 Tlp11-LBD with the cytoplasmic region of the E. coli chemoreceptor Tar to construct Tlp11-Tar hybrid chemoreceptors (Figure 3A). Five hybrid receptors with different fusion positions in the second transmembrane helix (TM2) were obtained: Tlp11[1-342]-Tar[200-553] (Tlp342Tar200), Tlp11[1-343]-Tar[200-553] (Tlp343Tar200), Tlp11[1-346]-Tar[204-553] (Tlp346Tar204), Tlp11[1-347]-Tar[204-553] (Tlp347Tar204), and Tlp11[1-348]-Tar[204-553] (Tlp348Tar204) (Supplementary Figure S5A). To verify the activities of these hybrid chemoreceptors, we expressed each protein as a chimera in green fluorescent protein (GFP)-labeled E. coli VS188 without any other chemoreceptors, such that each hybrid receptor served as the only chemoreceptor in the E. coli. […] These chemotactic responses triggered by glucose through the phosphotransferase system are independent of the chemoreceptor LBD ([Neumann et al., 2012]). […] Thus, we used this hybrid receptor for subsequent chemotaxis measurements.

[2] = system: C. jejuni NCTC 11168ΩTlp11 cells; format: cell-based, Campylobacter jejuni
Tlp11-LBD [3] = test: Microscale thermophoresis (MST) of Tlp11-LBD; format: binding, C. jejuni ATCC 33560; details: for Kd: 250 nM protein
Procedure: The His-tag dye (MO-L018 RED-tris-NTA, NanoTemper, Germany) was adjusted to a final concentration of 25 nM and used to label the purified protein with a His-tag. The compound was diluted to a series of concentrations in phosphate-buffered saline ([Duan et al., 2023]) with 0.05% Tween 20 (PBS-T) buffer and mixed in a ratio of 1:1 with protein. The mixtures were loaded into capillaries (Monolith™ Series capillaries, NanoTemper) by means of capillary action. Thermophoresis was measured using a Monolith™ NT.115 (NanoTemper) instrument, with 40% excitation and 40% MST power configuration. The time-traces of changes in fluorescence, which reflected the thermophoretic movement of labeled protein affected by different concentrations of compound were recorded, and the dose–response curves were fitted with the ‘temperature jump and thermophoresis’ mode. Data analysis was performed using MO. Affinity Analysis version 2.3 (NanoTemper) and Prism version 8.0.2 (GraphPad Software, United States).
MST quantifies interaction affinities by detecting the direct movement of fluorescent molecules along temperature gradients in capillaries. Ligand binding changes the thermophoretic movement of proteins, which can be used to derive Kds, by sequentially scanning capillaries with different ligand concentrations. MST has been applied to the study of weak binding systems and validated to provide reliable results ([Linke et al., 2016]; [Gao et al., 2021]). […] We also tested the binding abilities of methyl pyruvate analogues to Tlp11-LBD using MST (Supplementary Table S3).

[4] = system: C. jejuni WT NCTC 11168 cells; format: cell-based, Campylobacter jejuni
C. jejuni ATCC 33560 = test: Growth curves in Minimal Essential Medium; format: cell-based, Campylobacter jejuni; details: Minimal Essential Medium with fetal bovine serum, shaking; methyl pyruvate at concentrations above 1 mM
Procedure: The C. jejuni ATCC 33560, C. jejuni WT NCTC 11168 and 11168ΩTlp11 cells were grown on a MH agar plate overnight, at 37°C, under microaerobic conditions. The colonies were suspended in PBS ([Duan et al., 2023]), pH 7.2, inoculated into Minimal Essential Medium broth (Life Technologies) containing 10% fetal bovine serum to an initial OD600 of 0.01, and grown at 37°C, 100 rpm, under microaerobic conditions. When required, Minimal Essential Medium was supplemented with different concentrations of methyl pyruvate or pyruvate (both from Macklin, China).

Tlp11-LBD [5] = system: Tlp11-LBD; parameters: method as in Day et al., 2016; details: ref Day et al., 2016; cited from earlier work
[6] = system: C. jejuni 11168ΩTlp11/ΔCheY; format: cell-based, Campylobacter jejuni
H. pylori = system: H. pylori; parameters: method as in Matilla and Krell, 2023; Zhou et al., 2023; details: increase from 25 upon combination with amoxicillin and clarithromycin, clinical studies, ref Matilla and Krell, 2023, Zhou et al.; cited from earlier work
[7] = methyl pyruvate at pH 7.0, read-out: Kd of Tlp11-LBD binding

In the case of Cc1ccccc1 [toluene, Toluene], the “effect on chemotaxis towards methyl pyruvate of E. coli with Tlp342Tar200” value [1] is reported as “lost the chemotaxis towards methyl pyruvate”, the “effect on responses to glucose of E. coli with Tlp342Tar200” value [1] is reported as “not affected” and the “chemotactic response of E. coli expressing Tlp342Tar200 as the sole receptor” value [1] is reported as “failed to elicit a chemotactic response”. The chemotactic response ([2]; 11168ΩTlp11 cells, microfluidic device, 30 min) was “neither WT NCTC 11168 nor 11168ΩTlp11 cells exhibited chemotaxis”, the Kd (Tlp11-LBD [3]; [7]) was 844 ± 172 µM and the chemotactic response ([4]; WT NCTC 11168 cells, microfluidic device, 30 min) was “neither WT NCTC 11168 nor 11168ΩTlp11 cells exhibited chemotaxis”.

Compound CCOC(=O)C(C)=O [ethyl pyruvate, Ethyl pyruvate] has a Kd (Tlp11-LBD [3]; read-out: Kd of Tlp11-LBD binding) of 2360 ± 170 µM.

For CC(=O)C(=O)O [pyruvate, Pyruvate], the “effect on growth of C. jejuni ATCC 33560” value (C. jejuni ATCC 33560) was “promotion of the growth” and the “binding to Tlp11-LBD” value (Tlp11-LBD [3]; maximum concentration 2.5 mM) was “did not bind”.

For O=C[C@H](O)[C@@H](O)[C@@H](O)[C@H](O)CO [galactose], the “binding to Tlp11-LBD” value (Tlp11-LBD [5]) is listed as “bound directly”.

With O=CO [formate] the chemotactic response [2] was “attractant response”, the chemotactic response [4] was “attractive response” and the chemotactic response [6] was “no chemotaxis”.

For COc1ccc2[nH]c([S+]([O-])Cc3ncc(C)c(OC)c3C)nc2c1 (centres unmarked) [omeprazole], the “eradication rate of H. pylori” value (H. pylori) is given as 95%.

With c1ccc2ncccc2c1 [quinoline, Quinoline] the “effect on chemotaxis towards methyl pyruvate of E. coli with Tlp342Tar200” value [1] was “lost the chemotaxis towards methyl pyruvate”, the “effect on responses to glucose of E. coli with Tlp342Tar200” value [1] was “not affected” and the “chemotactic response of E. coli expressing Tlp342Tar200 as the sole receptor” value [1] was “failed to elicit a chemotactic response”. The chemotactic response [2] was “neither WT NCTC 11168 nor 11168ΩTlp11 cells exhibited chemotaxis”, the Kd (Tlp11-LBD [3]; [7]) was 905 ± 180 µM and the chemotactic response [4] was “neither WT NCTC 11168 nor 11168ΩTlp11 cells exhibited chemotaxis”.
